PubChem BioAssay AID1918956 (Molecular Pharmacology Branch, DTP, NCI, 2023)

Test system: OVCAR-5 complex spheroids, viability
Test: Anticancer human tumor OVCAR-5 cell line growth inhibition;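 note: spheroids exposed to agents for seven days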;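 for viability, T/C: 100% = DMSO vehicle control wells viability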
Conditions: for IC50: curve of first compound; for viability, T/C: stronger effect = lower value
Summary of the method: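 Multicellular complex spheroids of tumor cells with human endothelial cells (HUVEC) and mesenchymal stem cells; the LSD1 inhibitor iadademstat was combined with standard-of-care or investigational agents. Top concentration at or near clinical Cmax, half-log dilutions; final DMSO ≤0.25%.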

[1] = second compound 0.1 µM, first compound 0.00949 µM
[2] = second compound 0.1 µM, first compound 0.03 µM
[3] = second compound 0.1 µM, first compound 0.0949 µM
[4] = second compound 0.1 µM, first compound 0.3 µM
[5] = second compound 0.1 µM, first compound 0.949 µM
[6] = second compound 0.1 µM, first compound 3 µM
[7] = second compound 0.316 µM, first compound 0.00949 µM
[8] = second compound 0.316 µM, first compound 0.03 µM
[9] = second compound 0.316 µM, first compound 0.0949 µM
[10] = second compound 0.316 µM, first compound 0.3 µM
[11] = second compound 0.316 µM, first compound 0.949 µM
[12] = second compound 0.316 µM, first compound 3 µM
[13] = second compound 1 µM, first compound 0.00949 µM
[14] = second compound 1 µM, first compound 0.03 µM
[15] = second compound 1 µM, first compound 0.0949 µM
[16] = second compound 1 µM, first compound 0.3 µM
[17] = second compound 1 µM, first compound 0.949 µM
[18] = second compound 1 µM, first compound 3 µM
[19] = second compound 3.16 µM, first compound 0.00949 µM
[20] = second compound 3.16 µM, first compound 0.03 µM
[21] = second compound 3.16 µM, first compound 0.0949 µM
[22] = second compound 3.16 µM, first compound 0.3 µM
[23] = second compound 3.16 µM, first compound 0.949 µM
[24] = second compound 3.16 µM, first compound 3 µM
[25] = second compound 10 µM, first compound 0.00949 µM
[26] = second compound 10 µM, first compound 0.03 µM
[27] = second compound 10 µM, first compound 0.0949 µM
[28] = second compound 10 µM, first compound 0.3 µM
[29] = second compound 10 µM, first compound 0.949 µM
[30] = second compound 10 µM, first compound 3 µM
[31] = second compound 0.1 µM, first compound 0.0316 µM
[32] = second compound 0.1 µM, first compound 0.1 µM
[33] = second compound 0.316 µM, first compound 0.0316 µM
[34] = second compound 0.316 µM, first compound 0.1 µM
[35] = second compound 1 µM, first compound 0.0316 µM
[36] = second compound 1 µM, first compound 0.1 µM
[37] = second compound 3.16 µM, first compound 0.0316 µM
[38] = second compound 3.16 µM, first compound 0.1 µM
[39] = second compound 10 µM, first compound 0.0316 µM
[40] = second compound 10 µM, first compound 0.1 µM

Nc1ccccc1NC(=O)c1ccc(CNC(=O)OCc2cccnc2)cc1 + NC1CC1c1ccc(-c2cccc(O)c2)cc1
IC50 (second compound 0.1 µM): 0.123 µM | IC50 (second compound 0.316 µM): 0.174 µM | IC50 (second compound 1 µM): 0.145 µM | IC50 (second compound 3.16 µM): 0.111 µM | IC50 (second compound 10 µM): 0.123 µM | viability, T/C [1]: 83.1% | viability, T/C [2]: 71.6% | viability, T/C [3]: 54.5% | viability, T/C [4]: 34.8% | viability, T/C [5]: 19.2% | viability, T/C [6]: 8.11% | viability, T/C [7]: 84.9% | viability, T/C [8]: 79.7% | viability, T/C [9]: 65.3% | viability, T/C [10]: 35.5% | viability, T/C [11]: 19.4% | viability, T/C [12]: 8.17% | viability, T/C [13]: 75.6% | viability, T/C [14]: 65.9% | viability, T/C [15]: 62.2% | viability, T/C [16]: 32.4% | viability, T/C [17]: 19.8% | viability, T/C [18]: 8.19% | viability, T/C [19]: 84% | viability, T/C [20]: 68.6% | viability, T/C [21]: 55.5% | viability, T/C [22]: 30.6% | viability, T/C [23]: 17.8% | viability, T/C [24]: 7.56% | viability, T/C [25]: 79.6% | viability, T/C [26]: 71.3% | viability, T/C [27]: 55.5% | viability, T/C [28]: 32.1% | viability, T/C [29]: 19.5% | viability, T/C [30]: 9.48%

CC1COCCN1c1cc(C2(S(C)(=N)=O)CC2)nc(-c2ccnc3[nH]ccc23)n1 (stereo not given) + NC1CC1c1ccc(-c2cccc(O)c2)cc1
IC50 (second compound 0.1 µM): 0.858 µM | IC50 (second compound 0.316 µM): 0.862 µM | IC50 (second compound 1 µM): 0.792 µM | IC50 (second compound 3.16 µM): 0.663 µM | IC50 (second compound 10 µM): 0.697 µM | viability, T/C [31]: 80.6% | viability, T/C [32]: 78.3% | viability, T/C (second compound 0.1 µM, first compound 0.316 µM): 72.8% | viability, T/C (second compound 0.1 µM, first compound 1 µM): 45.9% | viability, T/C (second compound 0.1 µM, first compound 3.16 µM): 32% | viability, T/C (second compound 0.1 µM, first compound 10 µM): 26.7% | viability, T/C [33]: 89.2% | viability, T/C [34]: 95.6% | viability, T/C (second compound 0.316 µM, first compound 0.316 µM): 80.6% | viability, T/C (second compound 0.316 µM, first compound 1 µM): 44.9% | viability, T/C (second compound 0.316 µM, first compound 3.16 µM): 33% | viability, T/C (second compound 0.316 µM, first compound 10 µM): 25.6% | viability, T/C [35]: 71.4% | viability, T/C [36]: 75.4% | viability, T/C (second compound 1 µM, first compound 0.316 µM): 74.2% | viability, T/C (second compound 1 µM, first compound 1 µM): 44% | viability, T/C (second compound 1 µM, first compound 3.16 µM): 29.9% | viability, T/C (second compound 1 µM, first compound 10 µM): 25% | viability, T/C [37]: 88.8% | viability, T/C [38]: 77.6% | viability, T/C (second compound 3.16 µM, first compound 0.316 µM): 62.1% | viability, T/C (second compound 3.16 µM, first compound 1 µM): 42.9% | viability, T/C (second compound 3.16 µM, first compound 3.16 µM): 32% | viability, T/C (second compound 3.16 µM, first compound 10 µM): 24.8% | viability, T/C [39]: 76.9% | viability, T/C [40]: 78.6% | viability, T/C (second compound 10 µM, first compound 0.316 µM): 65.7% | viability, T/C (second compound 10 µM, first compound 1 µM): 42.3% | viability, T/C (second compound 10 µM, first compound 3.16 µM): 32.3% | viability, T/C (second compound 10 µM, first compound 10 µM): 27%

Cn1ncnc1C1c2n[nH]c(=O)c3cc(F)cc(c23)NC1c1ccc(F)cc1 (stereo not given) + NC1CCC(NC2CC2c2ccccc2)CC1
IC50 (second compound 0.1 µM): > 0.1 µM | IC50 (second compound 0.316 µM): > 0.1 µM | IC50 (second compound 1 µM): > 0.1 µM | IC50 (second compound 3.16 µM): > 0.1 µM | IC50 (second compound 10 µM): > 0.1 µM | viability, T/C (second compound 0.1 µM, first compound 0.000316 µM): 109% | viability, T/C (second compound 0.1 µM, first compound 0.001 µM): 95.3% | viability, T/C (second compound 0.1 µM, first compound 0.00316 µM): 104% | viability, T/C (second compound 0.1 µM, first compound 0.01 µM): 104% | viability, T/C [31]: 99.5% | viability, T/C [32]: 100% | viability, T/C (second compound 0.316 µM, first compound 0.000316 µM): 112% | viability, T/C (second compound 0.316 µM, first compound 0.001 µM): 98.7% | viability, T/C (second compound 0.316 µM, first compound 0.00316 µM): 98.3% | viability, T/C (second compound 0.316 µM, first compound 0.01 µM): 96% | viability, T/C [33]: 91.9% | viability, T/C [34]: 104% | viability, T/C (second compound 1 µM, first compound 0.000316 µM): 109% | viability, T/C (second compound 1 µM, first compound 0.001 µM): 96.2% | viability, T/C (second compound 1 µM, first compound 0.00316 µM): 95.7% | viability, T/C (second compound 1 µM, first compound 0.01 µM): 99.3% | viability, T/C [35]: 99% | viability, T/C [36]: 94.3% | viability, T/C (second compound 3.16 µM, first compound 0.000316 µM): 97.4% | viability, T/C (second compound 3.16 µM, first compound 0.001 µM): 95.9% | viability, T/C (second compound 3.16 µM, first compound 0.00316 µM): 87.9% | viability, T/C (second compound 3.16 µM, first compound 0.01 µM): 91.3% | viability, T/C [37]: 80.2% | viability, T/C [38]: 91.5% | viability, T/C (second compound 10 µM, first compound 0.000316 µM): 86% | viability, T/C (second compound 10 µM, first compound 0.001 µM): 107% | viability, T/C (second compound 10 µM, first compound 0.00316 µM): 81.4% | viability, T/C (second compound 10 µM, first compound 0.01 µM): 79% | viability, T/C [39]: 67.6% | viability, T/C [40]: 81.3%

COc1cc(C2c3cc4c(cc3C(OC3OC5COC(C)OC5C(O)C3O)C3COC(=O)C23)OCO4)cc(OC)c1O (stereo not given) + NC1CCC(NC2CC2c2ccccc2)CC1
IC50 (second compound 0.1 µM): 0.836 µM | IC50 (second compound 0.316 µM): 0.763 µM | IC50 (second compound 1 µM): 0.89 µM | IC50 (second compound 3.16 µM): 0.737 µM | IC50 (second compound 10 µM): 0.712 µM | viability, T/C [1]: 113% | viability, T/C [2]: 105% | viability, T/C [3]: 100% | viability, T/C [4]: 73.5% | viability, T/C [5]: 45.6% | viability, T/C [6]: 41.4% | viability, T/C [7]: 106% | viability, T/C [8]: 106% | viability, T/C [9]: 100% | viability, T/C [10]: 71% | viability, T/C [11]: 43.6% | viability, T/C [12]: 43.9% | viability, T/C [13]: 98.7% | viability, T/C [14]: 106% | viability, T/C [15]: 103% | viability, T/C [16]: 76.7% | viability, T/C [17]: 50% | viability, T/C [18]: 44.2% | viability, T/C [19]: 99.9% | viability, T/C [20]: 105% | viability, T/C [21]: 103% | viability, T/C [22]: 70.9% | viability, T/C [23]: 42.8% | viability, T/C [24]: 45.4% | viability, T/C [25]: 89.4% | viability, T/C [26]: 93% | viability, T/C [27]: 82.9% | viability, T/C [28]: 67.7% | viability, T/C [29]: 42.5% | viability, T/C [30]: 40.9%
